Test results published in US12667563B2, “Prophylactic or therapeutic agent for porphyria” (TANABE PHARMA CORPORATION, priority 2020, dated 2026).

Assays:
Type in all cases: in vivo, human
[1] = system: patients with erythropoietic protoporphyria or X-linked porphyria; test: Number of pain events recorded in electronic diary by patients during 16-week evaluation period of clinical trial; details: for reduction of pain events relative to the placebo administration group: 16 weeks; for Incidence rate of pain: N 24, 16-week evaluation period (placebo 7.5)
Protocol: Compound A was administered to adult male and female patients with erythropoietic protoporphyria or X-linked porphyria for 16 weeks in a randomized double-blind clinical trial. As another endpoint for the clinical effect, the number of pain events during the evaluation period of 16 weeks was recorded in an electronic diary by the patients themselves.
The incidence rates of pain during the evaluation period in the placebo administration group, the 100-mg compound A-administration group, and the 300-mg compound A-administration group were 7.5, 3.3, and 3.5, respectively.

[2] = system: patients with erythropoietic protoporphyria or X-linked porphyria; test: Health-related QOL: PGIC (Patient Global Impression of Change) score in clinical trial; details: 7-point scale, 7 = remarkable improvement (placebo 2.9), P value <0.001
Protocol: Compound A was administered to adult male and female patients with erythropoietic protoporphyria or X-linked porphyria for 16 weeks in a randomized double-blind clinical trial. As a secondary endpoint for the clinical effect, the PGIC (Patient Global Impression of Change) score, which is a health-related QOL, of each patient at week 16 was recorded by the patients themselves, More specifically, each patient was provided with a questionnaire for scoring the degree of improvement of the overall physical and mental health conditions on a 7-point scale.
The PGIC scores at week 16 in the placebo-administration group, the 100-mg compound A-administration group, and the 300-mg compound A-administration group were 2.9, 6.4, and 6.6, respectively.

[3] = system: patients with erythropoietic protoporphyria or X-linked porphyria; test: Time to occurrence of phototoxicity-related symptom in randomized double-blind clinical trial; details: for Least squares mean of the length of time (in minutes) before the first occurrence of a symptom in a day: week 16
Protocol: Compound A was administered to adult male and female patients with erythropoietic protoporphyria or X-linked porphyria for 16 weeks in a randomized double-blind clinical trial. As a primary endpoint for the clinical effect, the time to the first symptom due to exposure to light, including indirect sunlight as well as direct sunlight, during the period from 1 hour after sunrise to 1 hour before sunset was evaluated.
The baseline median of the erythrocyte protoporphyrin IX level was determined by measuring the protoporphyrin IX level in the fraction of erythrocytes in blood.
The median of the melanin density was determined h spectrophotometric measurement for the skin at the following six sites: the forehead, the left cheek, the inner side of the right upper arm, the inner side of the left forearm, the right side of the abdomen, and the left side of the hip.
The test in Example 2 was conducted in the Northern Hemisphere.

COC[C@H]1CN(C(=O)[C@]2(F)CN(C3CCCC3)C[C@H]2c2ccc(OC)cc2)C[C@@H]1c1ccc(C(F)(F)F)cc1N1CCC(C(=O)O)CC1.O=P(O)(O)O [Compound A, cocrystal containing 1-{2-[(3S,4R)-1-{[(3R,4R)-1-cyclopentyl-3-fluoro-4-(4-methoxyphenyl)pyrrolidin-3-yl]carbonyl}-4-(methoxymethyl)pyrrolidin-3-yl]-5-(trifluoromethyl)phenyl}piperidine-4-carboxylic acid and phosphoric acid]
reduction of pain events relative to the placebo administration group ([1]; 100 mg orally once daily): 60%
Incidence rate of pain ([1]; 100 mg orally once daily): 3.3
Incidence rate of pain, ratio to placebo ([1]; 100 mg orally once daily, P value 0.027): 0.4
reduction of pain events relative to the placebo administration group ([1]; 300 mg orally once daily): 50%
Incidence rate of pain ([1]; 300 mg orally once daily): 3.5
Incidence rate of pain, ratio to placebo ([1]; 300 mg orally once daily, P value 0.028): 0.5
Least squares mean of the PGIC scores ([2]; 100 mg orally once daily, N 25, week 16): 6.4
Least squares mean of the PGIC scores ([2]; 300 mg orally once daily, N 24, week 16): 6.6
Least squares mean of the length of time (in minutes) before the first occurrence of a symptom in a day ([3]; 100 mg (N = 15) vs placebo (N = 15), subgroup with initial dosing in fall or winter, P value 0.029): 52.8 min
Least squares mean of the length of time (in minutes) before the first occurrence of a symptom in a day ([3]; 100 mg (N = 18) vs placebo (N = 20), subgroup with initial dosing in spring or summer, P value 0.073): 54.4 min
Least squares mean of the length of time (in minutes) before the first occurrence of a symptom in a day ([3]; 100 mg orally once daily (N = 33) vs placebo (N = 35), P value 0.008): 53.8 min
least squares mean of the time (in minutes) to the first occurrence of the symptom in a day ([3]; 100 mg, patient group with baseline median erythrocyte protoporphyrin IX level not less than 1980.50 mcg/dL, P value 0.020): 69.3 min
least squares mean of the time (in minutes) to the first occurrence of the symptom in a day ([3]; 100 mg, patient group with median melanin density less than 3.0915, P value 0.499): 23.2 min
least squares mean of the time (in minutes) to the first occurrence of the symptom in a day ([3]; 100 mg, patient group with median melanin density not less than 3.0915, P value <0.001): 85.0 min
Least squares mean of the length of time (in minutes) before the first occurrence of a symptom in a day ([3]; 300 mg (N = 16) vs placebo (N = 15), subgroup with initial dosing in fall or winter, P value <0.001): 95.8 min
Least squares mean of the length of time (in minutes) before the first occurrence of a symptom in a day ([3]; 300 mg (N = 18) vs placebo (N = 20), subgroup with initial dosing in spring or summer, P value 0.168): 42.2 min
Least squares mean of the length of time (in minutes) before the first occurrence of a symptom in a day ([3]; 300 mg orally once daily (N = 34) vs placebo (N = 35), P value 0.003): 62.5 min
least squares mean of the time (in minutes) to the first occurrence of the symptom in a day ([3]; 300 mg, patient group with baseline median erythrocyte protoporphyrin IX level not less than 1980.50 mcg/dL, P value 0.003): 82.6 min
least squares mean of the time (in minutes) to the first occurrence of the symptom in a day ([3]; 300 mg, patient group with median melanin density less than 3.0915, P value 0.051): 63.7 min
least squares mean of the time (in minutes) to the first occurrence of the symptom in a day ([3]; 300 mg, patient group with median melanin density not less than 3.0915, P value 0.002): 80.3 min
time to the first occurrence of the symptom in a day ([3]; patient group with baseline median erythrocyte protoporphyrin IX level less than 1980.50 mcg/dL): tended to be prolonged
